The source of these data is publication PMC12070228, “Investigations of Enteric-Coated Tablet Propyl Gallate-Induced Nephrotoxicity in Beagles as well as Human and Dog Renal Proximal Tubule Epithelial Cells” (ACS Pharmacology & Translational Science, 2025).

Molecules are shown by their SMILES.

Series [1] in a line: Exposure comparison of PG and phase-I and phase-II metabolites in dog and human plasma. As to conditions: oral EC MEDI7219 tablets; samples through 8 h; human PG 800 mg (N = 8), dog PG 200 mg/kg/day (N = 6).
Description: Dog blood was collected via jugular vein in potassium (K2) EDTA tubes and processed to plasma. Samples were centrifuged at approximately 3000 rpm for 5 min at approximately 4 °C within 30 min of collection. Plasma samples were acidified with 1% (v/v) formic acid (FA) to avoid degradation of PG and metabolites in plasma within 20 min of the start of centrifugation and then stored frozen (≤-60 °C). Acidified plasma was extracted using internal standard-spiked solution (100 mM ammonium bicarbonate: acetonitrile = 1:4). Samples were then centrifuged to collect supernatant, followed by drying to completion. The dried samples were reconstituted with 200 uL of 0.1% (v/v) formic acid in water. Samples were vortexed and centrifuged before injection. In order to assess potential impact of hemolysis on qualification of PG and its metabolites, hemolyzed plasma was prepared by spiking fully hemolyzed whole blood at an indicated percentage into plasma.
Separations were conducted on a reversed-phase column (Phenomenex, Kinetex F5, 2.6 μm 100 Å, 100 × 4.6 mm) at a flow rate of 0.7 mL/min at 40 °C. Mobile phase A was 0.1% formic acid in water and mobile phase B was 0.1% formic acid in methanol. The samples were analyzed on a SCIEX 6500+ QTRAP under negative ESI mode. The total run time was 5.5 min. Eight calibration standards and three quality control (LQC, MQC and HQC) samples were used for quantification.
The primary metabolites of PG were measured in dog and human plasma following oral administration of EC MEDI7219 tablets to examine a potential mechanism of the PG-mediated renal toxicity in dog and its possible translatability to humans. Plasma concentrations of PG, its phase-I metabolites GA and 4OMGA and phase-II glucuronide and glutathione conjugates were measured. The human and dog samples, collected through 8 h after administration, were analyzed and the results were compared (Figure , Figure S5). Based on allometric scaling method the highest daily dose administered in humans was approximately 8-fold less compared with the dose level tested in dogs.
Human (H) data is in black. Dog (D) data is in red (study 002). Concentration (mM) is in log10 scale. Data was normalized to PG dose (mg/kg/day). N = 8 for human (PG dosed at 800 mg with MEDI7219 tablets). N = 6 for dogs (PG dosed at 200 mg/kg/day). Below LLOQ values were set to 1/2 LLOQ for the calculation.
The test system of a further series is human RPTECs. The series can be described thus: GSH-Glo glutathione assay. Format: cell-based. The conditions noted are these: ~48 h, high concentrations. The procedure:
(§1) Frozen RPTECs vials were removed from liquid nitrogen storage and placed in a 37 °C water bath until the contents were completely thawed. The cells were gently resuspended and dispensed into a cell culture flask at a seeding density of ∼7500 cells/cm^2. The flask was placed in a 37 °C, 5% CO2 incubator. Cell cultures were given fresh medium the following morning and then every other day until the cell culture was approximately 90% confluent. When the cell culture was 90% confluent, medium was removed and the cells were rinsed with warmed PBS. Cells were harvested and split into new flasks based on a cell density of 7500 cells/cm^2. Cells were incubated at 37 °C for 3 days, with fresh medium added each day. Cells were harvested and diluted with growth medium to a density of 200,000 cells/mL. 100 μL of cell suspension per well (20,000 cells/well) was added to a clear-bottom 96-well microplate for luminescence assays. The plated cells were incubated in the 37 °C incubator for 3 days.
(§2) Each test compound (PG, GA, 4OMPG and 4OMGA) was initially reconstituted using DMSO at a concentration of 250 mg/mL. Serial dilutions of each compound were performed to reach concentrations of 4000 μM, 2000 μM, 1000 μM, 500 μM, 250 μM, 125 μM, 62.5 μM, 31.3 μM using warmed fresh supplemented medium with 0.4% (v/v) DMSO for all concentration levels. 100 μL of media containing the compound solution was added to the cells. Final concentrations of the compounds were 2000 μM, 1000 μM, 500 μM, 250 μM, 125 μM, 62.5 μM, 31.3 μM, 15.7 μM. AZ13599185 (tubulysin, 100 or 500 ng/mL) or cisplatin (30 μg/mL) and buthionine sulfoximine (BSO, 200 μM) were used as positive controls for CTG and GSH assays, respectively. 0.2% (v/v) DMSO in medium was used as the control for both assays, corrsponding to the final cocnetration of DMSO in the well. Three replicates for each compound at each concentration were prepared. Six replicates of positive or negative controls were prepared. Cells were incubated at 37 °C for approximately 48 h.
(§3) Cell media were removed and cells were washed twice with 200 μL of PBS buffer per well. CTG and GSH assay reagents were added to the wells and the assays were performed following the protocols of the Promega assay kits. Briefly, to perform the CTG assay, 100 μL of CTG solution was added into each well. The plate was gently shaken and incubated in the dark for 30 min and luminescence was measured using a PerkinElmer VICTOR X3 plate reader. To perform the GSH assay, luciferin-NT substrate and glutathione S-transferase were mixed into the GSH-GLo solution. 100 μL of the mixed solution was added into each well. The plate was gently shaken and incubated in the dark for at least 30 min. 100 μL of Luciferin Detection Reagent was added per well. The plate was gently shaken and incubated in the dark for at least 15 min. Luminescence was measured using a PerkinElmer VICTOR X3 plate reader.
(§4) For cell-based assays, data was normalized to the negative control. Cell viability and GSH level were expressed as Cell viability or GSH level=Luminescence(each well)/Luminescence(average of DMSO negative control)

The next series concerns dog RPTECs. Kind of series: GSH-Glo glutathione assay. Format: cell-based. The conditions noted are these: ~48 h, high concentrations. The procedure:
as §1, §2, §3, §4

The conditions of series [2]: no reference given; cited from earlier work.
The test system of another series is urine NGAL. The conditions noted are these: dog, in vivo.

In general, Log P refers to a log measure of how a compound divides between an organic and an aqueous phase.

Description for urine NGAL: In the first investigative 4-week study (study 002), dogs received EC tablets consisting of different combinations of the clinical formulation excipients (Table ) with or without PG once daily for 27 days. For groups receiving tablets with PG, each EC tablet contained 100 mg PG; the number of tablets administered each day (13–20 placed in size 12 gelatin capsules) was adjusted based on the most recent body weight to yield a target PG dose level of 200 mg/kg/day. Scheduled necropsies of all surviving animals were conducted on day 28 of the dosing phase. Samples for PG toxicokinetics were collected on days 1, 14, 21, and 25 of the dosing-phase. On days 1, 14, and 21 samples were collected: predose and approximately 1, 2, 3, 4, 6, 8, 12, and 24 h postdose. Days 25: predose and approximately 1, 2, 3, 4, 6, 8, 10, and 24 h postdose. […] NGAL was measured using an ELISA method and normalized to urine creatinine. Blood samples for standard clinical chemistry parameters, including creatinine and urea nitrogen, were collected from fasted dogs twice prior to the predose phase and before daily dose administration on Days 7, 14, and 21 of the dosing phase, as well as on the day of scheduled necropsy; samples were measured on a clinical chemistry analyzer using a validated method.

In the case of `O=C(O)c1cc(O)c(O)c(O)c1` [GA, Gallic acid], the “Plasma exposure, humans compared with dogs” value in series [1] is “comparable between the two species”. Moreover, the “GSH levels at high concentrations” value in the series with human RPTECs and with dog RPTECs was “reduction of GSH levels” each time. The “Log P” value in series [2] was 0.91.
For `O=C(O)c1cc(O)c(O)c(OC2OC(C(=O)O)C(O)C(O)C2O)c1` (centres unmarked) [GA-3-Gluc, gallic acid-3-glucoronide], the “Plasma exposure, humans compared with dogs” value in series [1] is recorded as “lower exposure”.
For the molecule `COc1c(O)cc(C(=O)O)cc1O` [Group 4OMGA, 4-O-methyl gallic acid], the “Plasma exposure, humans compared with dogs” value in series [1] is given as “comparable between the two species”.
As for `CCCOC(=O)c1cc(O)c(OC)c(O)c1` [Group 4OMPG, 4-O-methyl propyl gallate, reference compound], the “GSH levels at high concentrations” value in the series on human RPTECs is reported as “increases of GSH”.
Regarding `C[C@H](CCC(=O)[O-])[C@H]1CC[C@H]2[C@@H]3[C@H](O)C[C@@H]4C[C@H](O)CC[C@]4(C)[C@H]3CC[C@]12C.[Na+]` [NaCDC, sodium chenodeoxycholate], the “Urine NGAL levels” value with urine NGAL is on record as “did not induce elevations in NGAL levels”.
